Read-outs that look alike come from different tables or passages of the source.
Biological target: T1, TbTryS (Trypanosoma brucei, UniProt Q586P2)
T1 sequence (Q586P2 1-627): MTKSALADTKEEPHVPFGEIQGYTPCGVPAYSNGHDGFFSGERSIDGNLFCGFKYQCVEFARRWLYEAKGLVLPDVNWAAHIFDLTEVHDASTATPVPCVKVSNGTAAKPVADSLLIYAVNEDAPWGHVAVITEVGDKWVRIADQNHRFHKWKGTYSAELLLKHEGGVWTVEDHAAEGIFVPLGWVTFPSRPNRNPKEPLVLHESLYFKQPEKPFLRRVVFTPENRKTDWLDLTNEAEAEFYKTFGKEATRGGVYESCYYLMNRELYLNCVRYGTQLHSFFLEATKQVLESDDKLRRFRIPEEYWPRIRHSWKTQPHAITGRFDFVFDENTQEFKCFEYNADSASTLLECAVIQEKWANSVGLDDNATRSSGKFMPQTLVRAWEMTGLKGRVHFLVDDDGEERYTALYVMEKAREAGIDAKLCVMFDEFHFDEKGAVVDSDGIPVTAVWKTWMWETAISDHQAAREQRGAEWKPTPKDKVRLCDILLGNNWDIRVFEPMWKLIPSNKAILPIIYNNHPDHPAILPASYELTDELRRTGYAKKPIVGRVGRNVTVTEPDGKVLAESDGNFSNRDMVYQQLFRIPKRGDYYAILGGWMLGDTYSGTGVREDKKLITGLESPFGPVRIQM
Assay: Trypanothione synthetase
Type: biochemical
Conditions: for LE (ligand efficiency): calculated as −0.6×ln(IC50)/(heavy atom count); for loss in activity (heterocycle at indazole position 3): indazole series, initial compound 60

Row | IC50 (TbTryS IC50) | LE (ligand efficiency) | Compound | further results
1 | 400 nM |  | CC(C)(C)S(=O)(=O)Cc1nc(-c2cccc(F)c2)cs1 [Compound 9, 2-(tert-Butylsulfonylmethyl)-4-(3-fluorophenyl)thiazole] | 
2 | 1100 nM |  | CC(C)(C)S(=O)(=O)Cc1nc(-c2ccccc2F)cs1 [Compound 5, 2-((tert-Butylsulfonyl)methyl)-4-(2-fluorophenyl)thiazole] | 
3 | 220 nM | 0.40 | CC(C)(C)S(=O)(=O)Cc1nn(-c2ccccc2)c2ccccc12 [Compound 72, 3-(tert-Butylsulfonylmethyl)-1-phenyl-1H-indazole] | 
4 | 4500 nM | 0.32 | Fc1cccc(-c2nn(Cc3cccnc3)c3ccccc23)c1 [Compound 76, 3-(3-Fluorophenyl)-1-(pyridin-3-ylmethyl)-1H-indazole] | 
5 | 110 nM | 0.44 | CN(C)C(=O)Cn1nc(-c2cccc(F)c2)c2ccccc21 [Compound 88, 2-(3-(3-Fluorophenyl)-1H-indazol-1-yl)-N,N-dimethylacetamide] | 
6 | > 100000 nM |  | CC(C)(C)C(=O)Cn1nc(-c2ccc(Cl)cc2)c2ccccc21 [Compound 61, 1-(3-(4-Chlorophenyl)-1H-indazol-1-yl)-3,3-dimethylbutan-2-one] | 
7 | 350 nM | 0.39 | CC(C)(C)C(=O)Cn1nc(-c2cccc(Cl)c2)c2ccccc21 [Compound 70, 1-(3-(3-Chlorophenyl)-1H-indazol-1-yl)-3,3-dimethylbutan-2-one] | IC50 (TbTryS IC50, values in running text): 354 nM
8 | 300 nM |  | CC(C)(C)C(=O)Cn1nc(-c2ccncc2)c2ccccc21 [Compound 65, 3,3-Dimethyl-1-(3-(pyridin-4-yl)-1H-indazol-1-yl)butan-2-one] | 
9 | 200 nM | 0.39 | CCN(CC)C(=O)Cn1nc(-c2cccc(F)c2)c2ccccc21 [Compound 87, N,N-Diethyl-2-(3-(3-fluorophenyl)-1H-indazol-1-yl)acetamide] | 
10 | 1100 nM |  | CC(C)(C)S(=O)(=O)Cc1nc(-c2cccc(C(F)(F)F)c2)cs1 [Compound 7, 2-(tert-Butylsulfonylmethyl)-4-(3-trifluoromethylphenyl)thiazole] | 
11 | 45000 nM |  | O=C(Cn1nnc(-c2cc(F)cc(F)c2)n1)c1ccccc1 [Compound 24, 2-(5-(3,5-Difluorophenyl)-2H-tetrazol-2-yl)-1-phenylethanone] | 
12 | > 100000 nM |  | Fc1cccc(-c2nn(Cc3cc(-c4ccccc4)on3)c3ccccc23)c1 [Compound 78, 3-((3-(3-Fluorophenyl)-1H-indazol-1-yl)methyl)-5-phenylisoxazole] | 
13 | 1500 nM |  | CC(C)(C)C(=O)Cn1nnc(-c2cccc(F)c2)n1 [Compound 17, 1-(5-(3-Fluorophenyl)-2H-tetrazol-2-yl)-3,3-dimethylbutan-2-one] | 
14 | > 100000 nM |  | O=C(Cn1nc(-c2cccc(F)c2)c2ccccc21)NCc1ccc(Cl)cc1 [Compound 86, N-(4-Chlorobenzyl)-2-(3-(3-fluorophenyl)-1H-indazol-1-yl)acetamide] | 
15 | 860 nM | 0.29 | CN1CCN(CCNC(=O)Cn2nc(-c3cccc(F)c3)c3ccccc32)CC1 [Compound 90, 2-(3-(3-Fluorophenyl)-1H-indazol-1-yl)-N-(2-(4-methylpiperazin-1-yl)ethyl)acetamide] | 
16 | 3000 nM | 0.35 | CC(C)(C)C(=O)Cn1nc(-c2cccnc2)c2ccccc21 [Compound 67, 1-(3-(3-Pyridyl)-1H-indazol-1-yl)-3,3-dimethylbutan-2-one] | loss in activity (heterocycle at indazole position 3): 10 fold
17 | 150 nM |  | CC(C)(C)C(=O)Cn1nc(-c2ccccc2)c2ccccc21 [Compound 60, 1-(3-Phenyl-1H-indazol-1-yl)-3,3-dimethylbutan-2-one] | 
18 | 830 nM | 0.28 | CN1CCN(CCCNC(=O)Cn2nc(-c3cccc(F)c3)c3ccccc32)CC1 [Compound 80, 2-(3-(3-Fluorophenyl)-1H-indazol-1-yl)-N-(3-(4-methylpiperazin-1-yl)propyl)acetamide] | 
19 | 400 nM | 0.42 | CC(C)(C)C(=O)Cn1nc(-c2ccsc2)c2ccccc21 [Compound 68, 3,3-Dimethyl-1-(3-(thiophen-3-yl)-1H-indazol-1-yl)butan-2-one] | 
20 | 37000 nM |  | Cc1nn(-c2ccccc2)nc1CNS(=O)(=O)C(C)(C)C [Compound 42, 2-Methyl-N-((5-methyl-2-phenyl-2H-1,2,3-triazol-4-yl)methyl)propane-2-sulfonamide] | 
21 | > 100000 nM |  | CC(C)Cn1cc(-c2nn(CC(=O)C(C)(C)C)c3ccccc23)cn1 [Compound 69, 1-(3-(1-Isobutyl-1H-pyrazol-4-yl)-1H-indazol-1-yl)-3,3-dimethylbutan-2-one] | 
22 | 6500 nM |  | CC(=O)Cn1nnc(-c2cc(Cl)cc(Cl)c2)n1 [Compound 21, 1-(5-(3,5-Dichlorophenyl)-2H-tetrazol-2-yl)propan-2-one] | 
23 | 3200 nM |  | Cc1ccccc1-c1csc(CS(=O)(=O)C(C)(C)C)n1 [Compound 4, 2-((tert-Butylsulfonyl)methyl)-4-(2-methylphenyl)thiazole] | 
24 |  | 0.35 | N-Methyl-(3-(dimethylamino)propyl)-2-(3-(3-fluorophenyl)-1H-indazol-1-yl)acetamide [Compound 85] | IC50 (read-out: TbTryS IC50): 170 nM

Further lines, the compound ahead of its results:

Row | Compound | IC50 (TbTryS IC50) | LE (ligand efficiency) | further results
25 | CN(C)C(=O)Cn1nnc(-c2cc(Cl)cc(Cl)c2)n1 [Compound 23, 2-(5-(3,5-Dichlorophenyl)-2H-tetrazol-2-yl)-N,N-dimethylacetamide] | 600 nM |  | 
26 | CN(C)CCNC(=O)Cn1nc(-c2cccc(F)c2)c2ccccc21 [Compound 83, N-(2-(Dimethylamino)ethyl)-2-(3-(3-fluorophenyl)-1H-indazol-1-yl)acetamide] | 145 nM | 0.38 | 
27 | CC(C)(C)C(=O)Cn1nc(-c2ccc3ccccc3c2)c2ccccc21 [Compound 64, 3,3-Dimethyl-1-(3-(naphthalen-2-yl)-1H-indazol-1-yl)butan-2-one] | > 100000 nM |  | 
28 | CCC(=O)Cn1nnc(-c2cc(Cl)cc(Cl)c2)n1 [Compound 22, 1-(5-(3,5-Dichlorophenyl)-2H-tetrazol-2-yl)butan-2-one] | 2700 nM |  | 
29 | CC(C)(C)C(=O)Cn1nc(-c2ccco2)c2ccccc21 [Compound 66, 1-(3-(Furan-2-yl)-1H-indazol-1-yl)-3,3-dimethylbutan-2-one] | 1900 nM |  | loss in activity (heterocycle at indazole position 3): 10 fold
30 | Fc1cccc(-c2nn(Cc3ccccn3)c3ccccc23)c1 [Compound 75, 3-(3-Fluorophenyl)-1-(pyridin-2-ylmethyl)-1H-indazole] | 2900 nM | 0.33 | 
31 | O=C(Cn1nc(-c2cccc(F)c2)c2ccccc21)NCCCn1ccnc1 [Compound 81, N-(3-(1H-Imidazol-1-yl)propyl)-2-(3-(3-fluorophenyl)-1H-indazol-1-yl)acetamide] | 350 nM | 0.32 | decrease in potency relative to 84: eight
32 | CC(C)(C)OC(=O)N1CCN(CCNC(=O)Cn2nc(-c3cccc(F)c3)c3ccccc32)CC1 [Compound 82, tert-Butyl-4-(2-(2-(3-(3-fluorophenyl)-1H-indazol-1-yl)acetamido)ethyl)piperazine-1-carboxylate] | 2900 nM | 0.22 | 
33 | CC(C)(C)C(=O)Cn1nc(-c2cccc3[nH]ccc23)c2ccccc21 [Compound 62, 1-(3-(1H-Indol-4-yl)-1H-indazol-1-yl)-3,3-dimethylbutan-2-one] | 3700 nM |  | 
34 | CC(C)(C)C(=O)Cn1nnc(-c2cc(Cl)cc(Cl)c2)n1 [Compound 20, 1-(5-(3,5-Dichlorophenyl)-2H-tetrazol-2-yl)-3,3-dimethylbutan-2-one] | 300 nM | 0.45 | gain in potency relative to unsubstituted scaffold 14: 25 fold
35 | CC(C)(C)S(=O)(=O)Cn1nc(-c2cccc(F)c2)c2ccccc21 [Compound 74, 1-(tert-Butylsulfonylmethyl)-3-(3-fluorophenyl)-1H-indazole] | 120 nM | 0.40 | 
36 | COc1cccc(-c2csc(CS(=O)(=O)C(C)(C)C)n2)c1 [Compound 6, 2-((tert-Butylsulfonyl)methyl)-4-(3-methoxyphenyl)thiazole] | 12000 nM |  | loss in potency relative to unsubstituted compound 3: 10 fold
37 | Cn1ccc2c(-c3nn(CC(=O)C(C)(C)C)c4ccccc34)cccc21 [Compound 63, 3,3-Dimethyl-1-(3-(1-methyl-1H-indol-4-yl)-1H-indazol-1-yl)butan-2-one] | > 100000 nM |  | 
38 | Cc1nc(Cn2nc(-c3cccc(F)c3)c3ccccc32)c(C)o1 [Compound 77, 4-((3-(3-Fluorophenyl)-1H-indazol-1-yl)methyl)-2,5-dimethyloxazole] | 28000 nM | 0.26 | 
39 | CC(C)(C)C(=O)Cn1nnc(-c2ccccc2)n1 [Compound 14, 3,3-Dimethyl-1-(5-phenyl-2H-tetrazol-2-yl)butan-2-one] | 8800 nM | 0.39 | 
40 | CC(C)(C)S(=O)(=O)Cc1nc(-c2ccccc2)cs1 [Compound 3, 2-((tert-Butylsulfonyl)methyl)-4-(phenyl)thiazole] | 1200 nM |  | 

Reference: PMC3320663 (Chemmedchem, 2011)
